Read-outs that look alike come from different tables or passages of the source.
Legend:
vanilloid receptor = molecular target: T1, vanilloid receptor (Rattus norvegicus, UniProt O35433); test: 45Ca influx test (calcium uptake) in primary cultured DRG neurons, capsaicin 0.5 μM; assay type: cell-based
T1 construct: DRG nerve cells from the primary culture of 2 days were equilibrated by washing 4 times; endogenous in cells; host or cells: primary culture of dorsal root ganglion neurons from neonatal SD rats
Procedure: 1) Separation of Spinal Dorsal Root Ganglia (DRG) in Newborn Rats and Primary Culture Thereof
Neonatal (2-3 day old or younger than 2-3 day old) SD rats were put in ice for 5 minutes to anesthetize and disinfected with 70% ethanol. […] The DRG were incubated sequentially at 37° C. for 30 mins in 200 U/ml collagenase and 2.5 mg/ml trypsin, separately. The ganglia were washed twice with DME/F12 medium supplemented with 10% horse serum, triturated through a fire-polished Pasteur pipette, filtered through Nitex 80 membrane to obtain single cell suspension and the suspension was washed once more. This was subjected to centrifugation, then resuspended in cell culture medium at certain level of cell density. As the cell culture medium, DME/F12 medium supplemented with 10% horse serum was diluted with identical medium conditioned by C6 glioma cells 2 days on a confluent monolayer (1:1), and NGF (Nerve Growth Factor) was added to adjust 200 ng/ml as final concentration. After the cells were grown 2 days in medium where cytosine arabinoside (Ara-C, 100 μM) was added to kill dividing nonneuronal cells, medium was changed to one without Ara-C. The resuspended cells were plated at a density of 1500-2000 neurons/well onto Terasaki plates previously coated with 10 μg/ml poly-D-ornithine.
2) ^45Ca Influx Experiments
DRG nerve cells from the primary culture of 2 days were equilibrated by washing 4 times with HEPES (10 mM, pH 7.4)-buffered Ca^2+, Mg^2+-free HBSS (H-HBSS). The solution in each well was removed from the individual well. Medium containing the test compound plus capsaicin (final concentration 0.5 μM) and ^45Ca (final concentration 10 μCi/ml) in H-HBSS was added to each well and incubated at room temperature for 10 mins. Terasaki plates were washed five times with H-HBSS and dried at room temperature. To each well, 0.3% SDS (10 μl) was added to elute ^45Ca. After the addition of scintillation cocktail of into each well, the amount of ^45Ca influx into neuron was measured by counting radioactivity.

[1] = PK study in rats, single oral administration; assay type: in vivo, rat; parameters: AUC: concentration or dose not given beside the values; details: rat, single oral administration, plasma; for AUC / Cmax / Tmax: Table 2; for half-life: Table 2, read-out: T½ (converted)
Procedure: Pharmacokinetics of compounds in rats were analyzed using the following experiment. Rats were fasted overnight prior to administration and until approximately 4 hours after administration. Rats were given a single oral administration of compound at same dose. Administration volume was 10 ml/kg. Blood samples were collected from the retro-orbital sinus at various times over the following 7 hrs. Immediately after each collection, plasmas were separated from blood cells by centrifugation and stored at −20° C. until the analysis was performed. The plasma samples were analyzed using a reverse phase high-performance chromatography (HPLC) method.

[2] = rat DRG neurons, capsaicin 0.5 μM, 45Ca, read-out: Antagonist Calcium Uptake Test (IC50)

T1 sequence (O35433 whole entry): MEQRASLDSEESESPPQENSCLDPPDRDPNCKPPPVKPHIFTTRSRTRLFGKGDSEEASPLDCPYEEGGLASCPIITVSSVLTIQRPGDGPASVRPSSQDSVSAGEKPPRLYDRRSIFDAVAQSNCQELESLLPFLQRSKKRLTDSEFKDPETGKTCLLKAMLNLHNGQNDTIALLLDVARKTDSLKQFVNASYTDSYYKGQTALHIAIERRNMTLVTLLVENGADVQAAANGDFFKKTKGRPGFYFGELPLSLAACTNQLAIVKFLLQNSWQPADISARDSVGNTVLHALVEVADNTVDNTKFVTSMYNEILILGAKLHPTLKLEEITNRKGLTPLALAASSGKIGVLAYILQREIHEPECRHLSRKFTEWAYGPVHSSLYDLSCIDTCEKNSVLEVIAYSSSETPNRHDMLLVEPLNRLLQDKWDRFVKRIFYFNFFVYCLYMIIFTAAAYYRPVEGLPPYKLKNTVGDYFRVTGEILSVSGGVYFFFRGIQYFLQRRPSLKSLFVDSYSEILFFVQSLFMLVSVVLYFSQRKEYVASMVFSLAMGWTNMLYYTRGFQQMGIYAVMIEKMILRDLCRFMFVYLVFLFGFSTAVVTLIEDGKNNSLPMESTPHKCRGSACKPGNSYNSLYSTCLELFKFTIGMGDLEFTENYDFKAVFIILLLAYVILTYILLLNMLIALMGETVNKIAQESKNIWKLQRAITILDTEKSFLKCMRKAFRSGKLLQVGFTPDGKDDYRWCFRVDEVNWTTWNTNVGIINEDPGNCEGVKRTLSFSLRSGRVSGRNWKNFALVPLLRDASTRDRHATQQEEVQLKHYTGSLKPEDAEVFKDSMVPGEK

SMILES	IC50 (vanilloid receptor; [2])	AUC [1]	Cmax [1]	Tmax [1]	half-life [1]	IC50 (vanilloid receptor; comparison with comparative compounds F and G, read-out: IC50 value)
CCCOc1cc(C(F)(F)F)ccc1/C=C/C(=O)N[C@H](C)c1cc(F)c(NS(C)(=O)=O)c(F)c1 [Example 5, (R)—N-[1-(3,5-Difluoro-4-methanesulfonylamino-phenyl)-ethyl]-3-(2-propoxy-4-trifluoromethyl-phenyl)-acrylamide]	0.12 µM	22500 ng·h/mL	2630 ng/mL	3.5 h	4.3 h	
CCCc1cc(C(F)(F)F)ccc1/C=C/C(=O)NCc1cc(F)c(NS(C)(=O)=O)c(F)c1 [Example 22, N-(3,5-Difluoro-4-methanesulfonylamino-benzyl)-3-(2-propyl-4-trifluoromethyl-phenyl)-acrylamide]	0.16 µM	19200 ng·h/mL	3660 ng/mL	2 h	2.58 h	
C=Cc1cc(CNC(=O)/C=C/c2ccc(C(F)(F)F)cc2NC(C)C)cc(F)c1NS(C)(=O)=O [Example 54, N-(3-fluoro-4-methanesulfonylamino-5-vinyl-benzyl)-3-(2-isopropylamino-4-trifluoromethyl-phenyl)-acrylamide]		5320 ng·h/mL	772 ng/mL	2 h	4.05 h	0.027 µM

Now from value to compound:

IC50 (vanilloid receptor; [2])	AUC [1]	Cmax [1]	Tmax [1]	half-life [1]	IC50 (vanilloid receptor; comparison with comparative compounds F and G, read-out: IC50 value)	SMILES
0.019 µM	16400 ng·h/mL	2720 ng/mL	2 h	3.5 h		CCCc1cc(C(F)(F)F)ccc1/C=C/C(=O)N[C@H](C)c1cc(F)c(NS(C)(=O)=O)c(F)c1 [Example 21, N-[1-(3,5-Difluoro-4-methanesulfonylamino-phenyl)-ethyl]-3-(2-propyl-4-trifluoromethyl-phenyl)-acrylamide]
0.044 µM	5690 ng·h/mL	1190 ng/mL	2 h	2.08 h		CCCCc1cc(C(F)(F)F)ccc1/C=C/C(=O)N[C@H](C)c1cc(F)c(NS(C)(=O)=O)c(F)c1 [Example 24, (R)-3-(2-Butyl-4-trifluoromethyl-phenyl)-N-[1-(3,5-difluoro-4-methanesulfonylamino-phenyl)-ethyl]-acrylamide]

Reference: patent publication US8557872B2, “Compounds, isomer thereof, or pharmaceutically acceptable salts thereof as vanilloid receptor antagonist; and pharmaceutical compositions containing the same” (Amorepacific Corporation, priority 2008, dated 2013)
